One data set deals with T1, human UGT1A9*3 (Homo sapiens, UniProt O60656, M33T).
T1 sequence (O60656 26-530 M33T): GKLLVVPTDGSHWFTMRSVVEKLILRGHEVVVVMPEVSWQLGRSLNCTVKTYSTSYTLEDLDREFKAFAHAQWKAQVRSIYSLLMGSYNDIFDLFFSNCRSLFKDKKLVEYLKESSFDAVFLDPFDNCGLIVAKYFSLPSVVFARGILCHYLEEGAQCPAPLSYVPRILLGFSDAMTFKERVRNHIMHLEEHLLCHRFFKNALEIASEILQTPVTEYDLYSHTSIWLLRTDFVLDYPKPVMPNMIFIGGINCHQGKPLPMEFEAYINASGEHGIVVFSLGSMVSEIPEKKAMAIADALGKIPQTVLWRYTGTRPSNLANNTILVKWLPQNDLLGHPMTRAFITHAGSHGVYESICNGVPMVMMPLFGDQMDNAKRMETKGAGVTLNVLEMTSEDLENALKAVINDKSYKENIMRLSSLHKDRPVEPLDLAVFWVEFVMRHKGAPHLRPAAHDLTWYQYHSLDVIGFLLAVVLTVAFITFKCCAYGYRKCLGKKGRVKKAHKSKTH
Put plainly: Glucuronidation by microsomes of HEK-293 cells stably expressing UGT1A9*3. As to the method: Microsomal fractions from HEK-293 cells stably expressing human UGT1A9*1, UGT1A9*2 and UGT1A9*3 were used in enzymatic assays. Reactions (100 μl volume) contained 50 mM Tris-HCl, pH 7.3, 10 mM MgCl2, 100 μg/mL phosphatidylcholine, 1 mM UDP-glucuronic acid, 40 to 60 μg of membrane protein. […] Human liver microsome were incubated in the same condition for control. Reaction was stopped by the addition of 200 μL MeOH+1% HCl 2N, followed by centrifugation at 14000 rpm for 10 minutes. Supernatant was filtered through a 0.22 μm filter and 100 μL of water was added. For SN-38 and SN-38-glucuronide detection, 10 μL samples were injected on a liquid chromatographic system coupled to a fluorescence detector. Time-course experiments were realized to determine the linearity of the glucuronidation reaction.
A liquid chromatographic method was developed to quantify SN-38 glucuronidation of UGT cell line-derived microsomes and human liver microsomes. Samples were analyzed using high performance liquid chromatography (Alliance 2695, Waters, Milford, Mass.). […] At a constant flow rate (0.7 ml/min), a linear gradient from 20 to 65% B was run over 3 min, held 0.8 min and a second gradient until 95% of B was run over 2 min and then re-equilibrated to 20% B over 2 min. The effluent from the HPLC system (Alliance 2695) was connected directly to a fluorescence detector (Waters, Milford, Mass.) using an excitation wavelength of […] and an emission of 460 nm. […] Determination of the glucuronidation rates obtained with other substrates was performed as currently known in the art.
Microsomal fractions from HEK293 (40 to 60 μg) were added to a reaction mixture (100 μL) containing 50 mM Tris-HCl, pH 7.3, 10 mM MgCl2, 100 μg/mL phosphatidylcholine and 2 mM UDP-glucuronic acid. […] Commercially available human liver microsomes (Human Cell Culture Center Inc., Laurel, Md.) were incubated in the same conditions for all experiments. Time-course experiments were performed to determine the linearity of the glucuronidation reaction. For the determination of Vmax and Km. HEK293 cells stably expressing UGT1A9 enzymes were incubated in the presence of various concentrations of SN-38 ranging from 0.1 to 200 μM and incubated for 30 min as described above whereas UGT1A7 membranes preparations were incubated for 3 hours. […] Reactions with SN-38 were stopped by the addition of 200 μL MeOH+1% HCl 2N, followed by centrifugation at 14000×g for 10 minutes. The supernatants were filtered through a 0.22 μm membrane and 100 μL of water was added to the filtrate. For the detection of SN-38 and its glucuronide (SN-38G), 10 μL samples were injected in a liquid chromatographic system (HPLC) coupled to fluorescence detector as described below.
A HPLC method was developed to quantify the rates of SN-38 glucuronidation from the various microsomal fractions under study. The HPLC system used was an Alliance 2695 (Waters, Milford, Mass.) equipped with a 50×3.2 mm Colombus C18 column (Phenomenex, Torrance, Calif.). […] Then a second gradient ranging from 65% to 95% solvent B was generated during the following 2 min. Finally, the column was re-equilibrated to 20% solvent B for 2 min. The column was connected to a fluorescence detector model 474 (Waters, Milford, Mass.) and the molecules were excited at a wavelength of 370 nm and an emission of 425 nm.

Another data set concerns the target T2, UGT1A7*7 (Homo sapiens, UniProt Q9HAW7, E139D/N129K/R131K).
T2 construct: expressed in transfected cells
T2 sequence (Q9HAW7 26-530 N129K/R131K/E139D): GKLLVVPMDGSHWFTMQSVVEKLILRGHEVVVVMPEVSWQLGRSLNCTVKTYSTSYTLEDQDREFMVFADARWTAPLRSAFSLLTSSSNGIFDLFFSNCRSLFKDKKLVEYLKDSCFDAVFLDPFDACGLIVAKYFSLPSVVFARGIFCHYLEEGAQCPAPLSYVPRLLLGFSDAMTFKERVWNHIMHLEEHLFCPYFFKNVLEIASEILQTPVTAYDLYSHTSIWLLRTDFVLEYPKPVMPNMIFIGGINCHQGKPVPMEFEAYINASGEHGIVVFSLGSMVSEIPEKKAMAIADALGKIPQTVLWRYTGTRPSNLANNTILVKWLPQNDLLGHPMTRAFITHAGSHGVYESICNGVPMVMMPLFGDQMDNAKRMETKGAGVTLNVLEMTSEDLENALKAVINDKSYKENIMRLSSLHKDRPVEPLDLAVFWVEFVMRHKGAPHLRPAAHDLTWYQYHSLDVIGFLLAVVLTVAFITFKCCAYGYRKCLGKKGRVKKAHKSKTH
Put plainly: SN-38 glucuronidation by microsomes of HEK293 cells expressing UGT1A7*7. More on the design: key to Function (SN-38G formation versus *1 allele): High: no significant difference in activity compared to *1 allele.; Low: significantly lower SN-38G formation versus *1 allele. The class given is in vitro ADME. The protocol: Western blot analyses of UGT1A7 and UGT1A9 variants expressed in HEK293 cells were performed on microsomal proteins (10 μg) separated on a 10% SDS-polyacrylamide gel. After transferring the proteins, the membranes were probed with an anti-UGT1A RC-71 polyclonal antibody and with an anti-calnexin antibody. The relative levels of UGT1A9 (a) and UGT1A7 proteins (b) were determined by semi-quantitative densitometric analysis of the Enhanced chemiluminescence (ECL) image. The in vitro SN-38 activity was assessed using microsomal fractions prepared from HEK293 cells expressing the *1 and variant UGT1A9 (c) and UGT1A7 (d) alleles and incubated with 5 μM of SN-38 as described in Materials and Methods.
For the determination of Vmax and Km.

The mark [1] stands for this setting: threonine at position 33, versus UGT1A9*1.

The results in this text go back to US20060183119A1, “Method for determining predisposition to a physiological reaction in a patient” (UNIVERSITE LAVAL, priority 2002, published 2006).

Structures are written as SMILES. Read-outs that look alike come from different tables or passages of the source.

With `CCc1c2c(nc3ccc(O)cc13)-c1cc3c(c(=O)n1C2)COC(=O)[C@]3(O)CC` [SN-38, 7-ethyl-10-hydroxycamptothecin], at human UGT1A9*3 (5 μM of SN-38), the “residual activity compared to the wild type enzyme (SN-38G formation)” value is reported as 3.8%. For the same compound, the “Vmax values lower for UGT1A9*3 compared with UGT1A9*1” value on human UGT1A9*3 (SN-38 glucuronidation) is “about 26 times”. In addition, the Vmax at human UGT1A9*3 (SN-38 glucuronidation, 0.1 to 200 μM, mean±SD) stood at 11.89±2.61 pmol/min/mg protein. On human UGT1A9*3 (SN-38 glucuronidation, Table 5), the Km stood at 3.21 ± 0.95 µM and the Vmax came to 15.50 ± 8.40. For the same compound, the “SN-38 glucuronidating activity of the allele (in words)” value at human UGT1A9*3 (in vitro functional genomic assays) was “low”. Besides, the Km on human UGT1A9*3 (read-out: Apparent Km, SN-38 glucuronidation, 0.1 to 200 μM, mean±SD, Lineweaver-Burk) amounted to 3.21 ± 0.95 µM. Also, on human UGT1A9*3 (setting [1]), the “decrease of glucuronidation rate” value is “approximately 20 folds” and the “decreased conjugation rate for SN-38” value came out at 96.3%. Further, the “effect of codon 33 variation on affinity of the protein for the substrate (in words)” value at human UGT1A9*3 (versus UGT1A9*1) is reported as “does not affect significantly”. The “Function (SN-38G formation versus *1 allele)” value on UGT1A7*7 (in vitro experiments) was “High”. In addition, on UGT1A7*7 (range given for *5, *7 and *8 together), the “lower rates of SN-38G formation compared to UGT1A7*1” value is reported as 38-76%.
